Read-outs that look alike come from different tables or passages of the source.
How the values were obtained:
[1] = system: SMN protein in spinal muscular atrophy (SMA) patient fibroblasts (GM03813, Coriell); assay: SMN protein assay, Mesoscale Discovery (MSD); assay type: cell-based, human; settings: for EC50: read-out: SMN2 protein EC50
Outline: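 Absolute SMN levels were quantified by MSD against an SMN protein standard curve (1 μg/ml to 19.5 pg/ml) run on each plate. Samples were lysates of GM03813 patient fibroblasts (7000 cells/well) treated 48 hours with compound doses from 2.5 μM down to 0.6 nM.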

[2] = system: MDR1-MDCK cell monolayers; settings: dog, MDCK-MDR1, 120 min, 5 μM, pH 7.4
[3] = system: MDR1 (P-gp); assay: in vitro; settings: dog, MDCK-MDR1, pH 7.4
[4] = system: MDR1; assay: in vitro; settings: dog, MDCK-MDR1, pH 7.4
[5] = system: mHTT protein in GM04724 (CAG 70/20) Huntington's disease patient lymphoblast cells; assay: mHTT protein assay, 2B7-MW1 assay via Mesoscale Discovery (MSD); assay type: cell-based, human; settings: for mHTT protein EC50: GM04724 Huntington's disease patient lymphoblasts; for EC50: GM04724 (CAG 70/20) Huntington's disease patient lymphoblasts
Outline: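 Signal from the 2B7-MW1 antibody pair on MSD, rising with polyQ length and smaller HTT fragments, measured mHTT after 48 h compound exposure (0.6 nM–10 μM) in GM04724 cells. A parallel replicate plate gave CellTiter Glo viability.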

[6] = Quantitative splicing assay (HTT), qPCR; assay type: cell-based, human; settings: Homo sapiens, GM04724, 24 h, GM04724 lymphoblasts, read-out: HTT Splicing: E49-50 EC50
Outline: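 TaqMan qPCR on cell-lysate cDNA quantifies cryptic-exon inclusion from HTT intron 49. Lymphoblasts plated at 50,000 cells/well had received compound for 24 h, 0.15 nM-2.5 uM range, 0.1% DMSO.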

[7] = system: SMN FL and SMN Δ7 in spinal muscular atrophy (SMA) patient fibroblasts (GM03813, Coriell); assay: Quantitative splicing assay (SMN), qPCR; assay type: cell-based, human; settings: Homo sapiens, Fibroblast, 24 h, SMA patient fibroblasts (GM03813), 24 h; read-out: SMN2 Splicing FL EC50
Experimental: Spinal muscular atrophy (SMA) patient fibroblasts (GM03813, Coriell) are plated in 96-well plates at 50,000 cells/well. […] Treated cells are lysed and cDNA synthesized using the Fast Advanced Cells-to-Ct kit (Thermofisher A35378) according to the manufacturer's instructions. 2 μL of each cDNA are used in qPCR reactions. […] Reactions are run in a Quant Studio 6 qPCR instrument with default settings.

[8] = system: MDR1 (P-gp); assay: Blood-brain-barrier (BBB) penetration potential via MDCK-MDR1 permeability assay; settings: dog; for Papp A→B at 120 min, 5 μM: MDCK-MDR1, pH 7.4, MDCK-MDR1: Papp A-B; for Papp B→A at 120 min, 5 μM: MDCK-MDR1, pH 7.4, MDCK-MDR1: Papp B-A
[9] = system: MDR1-MDCK cell monolayers; assay: as above
[10] = system: MDR1; assay: as above; settings: dog, MDCK-MDR1, pH 7.4, MDCK-MDR1: Efflux
[11] = SMA patient fibroblasts (GM03813), 48 hours
[12] = SMA patient fibroblasts GM03813, 48 hours, MSD

| Structure (SMILES) | SMN2 protein EC50 [1, 11] | MDCK-MDR1: % Recov A-B [2] [%] | MDCK-MDR1: % Recov B-A [2] [%] | Papp A→B at 120 min, 5 μM [3] [×10⁻⁶ cm/s] | Papp B→A at 120 min, 5 μM [3] [×10⁻⁶ cm/s] | efflux ratio at 120 min, 5 μM [4] | mHTT protein EC50 [5] | SMN2 protein EC50 [1, 12] | EC50 [6] [nM] | EC50 [5] [nM] | EC50 [7] [nM] | EC50 [1, 11] [nM] | Papp A→B at 120 min, 5 μM [8] [×10⁻⁶ cm/s] | Papp B→A at 120 min, 5 μM [8] [×10⁻⁶ cm/s] | MDCK-MDR1: % Recov A-B [9] [%] | MDCK-MDR1: % Recov B-A [9] [%] | efflux ratio at 120 min, 5 μM [10] |
| --- | --- | --- | --- | --- | --- | --- | --- | --- | --- | --- | --- | --- | --- | --- | --- | --- | --- |
| CN(c1ccc(-c2cnc(-c3cnn(C)c3)nc2O)nn1)[C@H]1C[C@@H]2CC[C@@H](N2)[C@H]1F (racemic) [Compound 122, rac-5-(6-(((1R,2R,3S,5S)-2-fluoro-8-azabicyclo[3.2.1]octan-3-yl)(methyl)amino)pyridazin-3-yl)-2-(1-methyl-1H-pyrazol-4-yl)pyrimidin-4-ol] | E (501 ≤ E ≤ 10.000) | 86 | 98 | < 0.2 | 0.6 | > 3 | – | – | – | – | – | – | – | – | – | – | – |
| CN(c1ccc(-c2ccc(C3CC3)cc2O)nn1)[C@@H]1C[C@H]2CC[C@H](N2)[C@@H]1F (single isomer, unassigned) [Compound 31A] | – | 45 | 66 | 8.77 | 31.3 | 4 | E (501 ≤ E ≤ 10.000) | E (501 ≤ E ≤ 10.000) | – | – | – | – | – | – | – | – | – |
| CN(c1ccc(-c2ccc(C3CC3)cc2O)nn1)[C@H]1C[C@@H]2CC[C@@H](N2)[C@H]1F (single isomer, unassigned) [Compound 31B] | – | 43 | 74 | 7.08 | 27 | 4 | E (501 ≤ E ≤ 10.000) | E (501 ≤ E ≤ 10.000) | – | – | – | – | – | – | – | – | – |
| CC(=O)Nc1ccc(-c2ccc(N(C)[C@@H]3C[C@H]4CC[C@H](N4)[C@@H]3F)nn2)c(O)c1 (single isomer, unassigned) [Compound 32A] | – | 90 | 98 | 0.34 | 20.2 | 59 | E (501 ≤ E ≤ 10.000) | E (501 ≤ E ≤ 10.000) | – | – | – | – | – | – | – | – | – |
| CC(=O)Nc1ccc(-c2ccc(N(C)[C@H]3C[C@@H]4CC[C@@H](N4)[C@H]3F)nn2)c(O)c1 (single isomer, unassigned) [Compound 32B] | – | 95 | 95 | 0.27 | 21.2 | 78 | E (501 ≤ E ≤ 10.000) | E (501 ≤ E ≤ 10.000) | – | – | – | – | – | – | – | – | – |
| CN(C)C(=O)c1cc(O)c(-c2ccc(N(C)[C@@H]3C[C@H]4CC[C@H](N4)[C@@H]3F)nn2)cc1F (single isomer, unassigned) [Compound 53A] | – | 96 | 114 | 0.32 | 41 | 127 | E (501 ≤ E ≤ 10.000) | E (501 ≤ E ≤ 10.000) | – | – | – | – | – | – | – | – | – |
| CN(C)C(=O)c1cc(O)c(-c2ccc(N(C)[C@H]3C[C@@H]4CC[C@@H](N4)[C@H]3F)nn2)cc1F (single isomer, unassigned) [Compound 53B] | – | 100 | 112 | 0.27 | 41.8 | 153 | E (501 ≤ E ≤ 10.000) | E (501 ≤ E ≤ 10.000) | – | – | – | – | – | – | – | – | – |
| Cc1nc2cc(-c3ccc(N(C)[C@@H]4C[C@H]5CC[C@H](N5)[C@@H]4F)nn3)c(O)cc2s1 [Compound 115A, 5-(6-(((1S,2S,3R,5R)-2-fluoro-8-azabicyclo[3.2.1]octan-3-yl)(methyl)amino)pyridazin-3-yl)-2-methylbenzo[d]thiazol-6-ol] | – | – | – | – | – | – | – | – | 16 to 50 | 0.01 to 15 | 16 to 50 | 0.01 to 15 | 4.7 | 39.3 | 93 | 78 | 8 |
| Cc1nc2cc(-c3ccc(N(C)[C@H]4C[C@@H]5CC[C@@H](N5)[C@H]4F)nn3)c(O)cc2s1 [Compound 115B, 5-(6-(((IR,2R,3S,5S)-2-fluoro-8-azabicyclo[3.2.1]octan-3-yl)(methyl)amino)pyridazin-3-yl)-2-methylbenzo[d]thiazol-6-ol] | – | – | – | – | – | – | – | – | 0.01 to 15 | 0.01 to 15 | 0.01 to 15 | 0.01 to 15 | 6.4 | 42.6 | 71 | 88 | 7 |
| Cc1nc2cc(O)c(-c3ccc(N(C)[C@@H]4C[C@H]5CC[C@H](N5)[C@@H]4F)nn3)cc2s1 [Compound 116A, 6-(6-(((1S,2S,3R,5R)-2-fluoro-8-azabicyclo[3.2.1]octan-3-yl)(methyl)amino)pyridazin-3-yl)-2-methylbenzo[d]thiazol-5-ol] | – | – | – | – | – | – | – | – | 16 to 50 | 0.01 to 15 | 51 to 100 | 0.01 to 15 | 4.39 | 42.9 | 86 | 88 | 10 |
| Cc1nc2cc(O)c(-c3ccc(N(C)[C@H]4C[C@@H]5CC[C@@H](N5)[C@H]4F)nn3)cc2s1 [Compound 116B, 6-(6-(((1R,2R,3S,5S)-2-fluoro-8-azabicyclo[3.2.1]octan-3-yl)(methyl)amino)pyridazin-3-yl)-2-methylbenzo[d]thiazol-5-ol] | – | – | – | – | – | – | – | – | 0.01 to 15 | 0.01 to 15 | 0.01 to 15 | 0.01 to 15 | 6.29 | 43.2 | 77 | 80 | 7 |
| Cc1nc2cc(O)c(-c3ccc(N(C)[C@@H]4C[C@H]5CC[C@H](N5)[C@@H]4F)nn3)cc2o1 [Compound 117A, 6-(6-(((1S,2S,3R,5R)-2-fluoro-8-azabicyclo[3.2.1]octan-3-yl)(methyl)amino)pyridazin-3-yl)-2-methylbenzo[d]oxazol-5-ol] | – | – | – | – | – | – | – | – | 51 to 100 | 16 to 50 | 101 to 500 | 16 to 50 | 6.87 | 39.9 | 84 | 97 | 6 |
| Cc1nc2cc(O)c(-c3ccc(N(C)[C@H]4C[C@@H]5CC[C@@H](N5)[C@H]4F)nn3)cc2o1 [Compound 117B, 6-(6-(((1R,2R,3S,5S)-2-fluoro-8-azabicyclo[3.2.1]octan-3-yl)(methyl)amino)pyridazin-3-yl)-2-methylbenzo[d]oxazol-5-ol] | – | – | – | – | – | – | – | – | 16 to 50 | 0.01 to 15 | 16 to 50 | 0.01 to 15 | 4.32 | 45 | 90 | 86 | 10 |
| CN(c1ccc(-c2cc3cnccc3cc2O)nn1)[C@H]1C[C@@H]2CCC[C@@H](N2)[C@H]1F [Compound 121B, 7-(6-(((1R,2R,3S,5S)-2-fluoro-9-azabicyclo[3.3.1]nonan-3-yl)(methyl)amino)pyridazin-3-yl)isoquinolin-6-ol] | – | – | – | – | – | – | – | – | 0.01 to 15 | 0.01 to 15 | 0.01 to 15 | 0.01 to 15 | 4.47 | 39.5 | 83 | 111 | 9 |

Reference: patent US12509460B2 (Skyhawk Therapeutics, Inc., priority 2019, dated 2025)
